Data taken from patent publication US9708293B2, “N-(pyridin-2-yl)pyrimidin-4-amine derivatives containing a sulfone group” (BAYER PHARMA AKTIENGESELLSCHAFT, priority 2012, dated 2017).

Experiments:
[1] = test system: HeLa cells; test: Proliferation assay, HeLa; type: cell-based; conditions: Homo sapiens, 96 h, 4 days, crystal violet, read-out: Inhibition of HeLa cell proliferation IC50
Experimental: (§1) Cultivated tumour cells (HeLa, human cervical tumour cells, ATCC CCL-2; NCI-H460, human non-small cell lung carcinoma cells, ATCC HTB-177; A2780, human ovarian carcinoma cells, ECACC #93112519; DU 145, hormone-independent human prostate carcinoma cells, ATCC HTB-81; HeLa-MaTu-ADR, multidrug-resistant human cervical carcinoma cells, EPO-GmbH Berlin; Caco-2, human colorectal carcinoma cells, ATCC HTB-37; B16F10, mouse melanoma cells, ATCC CRL-6475) were plated at a density of 5,000 cells/well (DU145, HeLa-MaTu-ADR), 3,000 cells/well (NCI-H460, HeLa), 2,500 cells/well (A2780), 1,500 cells/well (Caco-2), or 1,000 cells/well (B16F10) in a 96-well multititer plate in 200 μL of their respective growth medium supplemented 10% fetal calf serum. After 24 hours, the cells of one plate (zero-point plate) were stained with crystal violet (see below), while the medium of the other plates was replaced by fresh culture medium (200 μl), to which the test substances were added in various concentrations (0 μM, as well as in the range of 0.001-10 μM; the final concentration of the solvent dimethyl sulfoxide was 0.5%). The cells were incubated for 4 days in the presence of test substances. Cell proliferation was determined by staining the cells with crystal violet: the cells were fixed by adding 20 μl/measuring point of an 11% glutaric aldehyde solution for 15 minutes at room temperature. After three washing cycles of the fixed cells with water, the plates were dried at room temperature. The cells were stained by adding 100 μl/measuring point of a 0.1% crystal violet solution (pH 3.0). After three washing cycles of the stained cells with water, the plates were dried at room temperature. The dye was dissolved by adding 100 μl/measuring point of a 10% acetic acid solution. The extinction was determined by photometry at a wavelength of 595 nm. The change of cell number, in percent, was calculated by normalization of the measured values to the extinction values of the zero-point plate (=0%) and the extinction of the untreated (0 μm) cells (=100%). […]

[2] = target: T1, CDK2/CycE (Homo sapiens, UniProt P24941); test: CDK2/CycE high ATP kinase assay (Method 2b); type: biochemical; conditions: 2 mM ATP, read-out: high ATP CDK2: CDK2/CycE1 kinase assay IC50
T1 construct: GST; purchased ProQinase GmbH (Freiburg, Germany); host or cells: insect cells (Sf9)
Experimental: 2b. CDK2/CycE High ATP Kinase Assay
CDK2/CycE-inhibitory activity of compounds of the present invention at 2 mM adenosine-tri-phosphate (ATP) was quantified employing the CDK2/CycE TR-FRET (TR-FRET=Time Resolved Fluorescence Energy Transfer) assay as described in the following paragraphs.
Recombinant fusion proteins of GST and human CDK2 and of GST and human CycE, expressed in insect cells (Sf9) and purified by Glutathion-Sepharose affinity chromatography, were purchase from ProQinase GmbH (Freiburg, Germany). As substrate for the kinase reaction biotinylated peptide biotin-Ttds-YISPLKSPYKISEG (C-terminus in amid form) was used which can be purchased e.g. form the company JERINI peptide technologies (Berlin, Germany).
For the assay 50 nl of a 100 fold concentrated solution of the test compound in DMSO was pipetted into a black low volume 384 well microtiter plate (Greiner Bio-One, Frickenhausen, Germany), 2 μl of a solution of CDK2/CycE in aqueous assay buffer [50 mM Tris/HCl pH 8.0, 10 mM MgCl2, 1.0 mM dithiothreitol, 0.1 mM sodium ortho-vanadate, 0.01% (v/v) Nonidet-P40 (Sigma)] were added and the mixture was incubated for 15 min at 22° C. to allow pre-binding of the test compounds to the enzyme before the start of the kinase reaction. Then the kinase reaction was started by the addition of 3 μl of a solution ATP (3.33 mM=>final conc. in the 5 μl assay volume is 2 mM) and substrate (1.25 μM=>final conc. in the 5 μl assay volume is 0.75 μM) in assay buffer and the resulting mixture was incubated for a reaction time of […] at 22° C. The concentration of CDK2/CycE was adjusted depending of the activity of the enzyme lot and was chosen appropriate to have the assay in the linear range, typical concentrations were in the range of 15 ng/ml. […]
The resulting mixture was incubated 1 h at 22° C. to allow the formation of complex between the phosphorylated biotinylated peptide and the detection reagents. Subsequently the amount of phosphorylated substrate was evaluated by measurement of the resonance energy transfer from the Eu-chelate to the streptavidine-XL. Therefore, the fluorescence emissions at 620 nm and 665 nm after excitation at 350 nm wer measured in a TR-FRET reader, e.g. a Rubystar (BMG Labtechnologies, Offenburg, Germany) or a Viewlux (Perkin-Elmer). […]

[3] = test system: NCI-H460 cells; test: Proliferation assay, NCI-H460; type: cell-based; conditions: Homo sapiens, NCI-H460, 96 h; 4 days, crystal violet; read-out: Inhibition of NCI-H460 cell proliferation IC50
Experimental: as §1

[4] = test system: DU145 cells; test: Proliferation assay, DU145; type: cell-based; conditions: Homo sapiens, DU-145, 96 h; 4 days, crystal violet; read-out: Inhibition of DU145 cell proliferation IC50
Experimental: as §1

[5] = test system: B16F10 cells; test: Proliferation assay, B16F10; type: cell-based; conditions: Mus musculus, B16-F10, 96 h; 4 days, crystal violet; read-out: Inhibition of B16F10 cell proliferation IC50
Experimental: as §1

IC50 [1] [µM]	IC50 [2] [µM]	IC50 [3] [µM]	IC50 [4] [µM]	IC50 [5] [µM]	Structure (SMILES)
0.101	≥ 20	0.317	0.195	0.289	COc1cc(F)ccc1-c1cc(Nc2cc(CS(C)(=O)=O)ccn2)ncn1 [Example 1, 6-(4-Fluoro-2-methoxyphenyl)-N-{4-[(methylsulfonyl)methyl]pyridin-2-yl}pyrimidin-4-amine]
0.076	2.25	0.095	0.075	0.101	COc1cc(F)ccc1-c1cc(Nc2cc(CS(C)(=O)=O)cc(C)n2)ncn1 [Example 2, 6-(4-Fluoro-2-methoxyphenyl)-N-{6-methyl-4-[(methylsulfonyl)methyl]pyridin-2-yl}pyrimidin-4-amine]
0.024	0.371	0.055	0.034	0.034	COc1cc(F)ccc1-c1cc(Nc2cc(CS(C)(=O)=O)cc(C(F)(F)F)n2)ncn1 [Example 3, 6-(4-Fluoro-2-methoxyphenyl)-N-{4-[(methylsulfonyl)methyl]-6-(trifluoromethyl)pyridin-2-yl}pyrimidin-4-amine]
	1.87				COc1cc(F)ccc1-c1cc(Nc2cc(CS(C)(=O)=O)cc(F)n2)ncn1 [Example 4, 6-(4-Fluoro-2-methoxyphenyl)-N-{6-fluoro-4-[(methylsulfonyl)methyl]pyridin-2-yl}pyrimidin-4-amine]
